{
  "source": "patent US20060198889A1",
  "about": "“Roflumilast and integrin inhibitor combination and treatement method” (priority 2005, published 2006)",
  "key": {"[1]": {"system": "airway inflammation in the atopic primate", "assay": "Airway inflammation in the atopic primate, oral R411 (FIG. 4)", "assay_type": "in vivo", "details": "oral administration, atopic primate (FIG. 4)"}, "[2]": {"system": "mild/moderate asthmatics not treated with inhaled corticosteroids", "assay": "ARES study: R411 monotherapy, 12 week treatment period", "assay_type": "in vivo, human", "details": "for Asthma control Questionnaire (Total Score), change from baseline / Morning asthma symptoms, change from baseline / Rescue β2-agonist use (puffs/d), change from baseline: ITT population", "description": "The ARES study illustrated in FIG. 3 was designed to evaluate the safety and efficacy of monotherapy R411 over a 12 week treatment period in 480 mild/moderate asthmatics not treated with inhaled corticosteroids. Patients were randomized to one of four cohorts: 50, 200, 600 mg QD R411, or placebo (n=120/group). The primary endpoint in the study was change in FEV1 from baseline, and secondary endpoints included PEFR, asthma exacerbations, β2-agonist use, asthma control questionnaire, asthma symptom scores, and nocturnal awakenings. Small airway inflammation represents a clinically significant component of moderate to severe asthma that is not adequately controlled by currently available inhaled corticosteroids therapies.\nARES study evaluated the safety and efficacy of monotherapy with R411 over a 12-week treatment period in 479 mild/moderate asthmatics not treated with inhaled corticosteroids. Patients were randomized to one of four cohorts: 50, 200, 600 mg once daily R411, or placebo."}, "α4/β7 integrin": {"target": "T1, α4/β7 integrin (Homo sapiens, UniProt P13612+P26010)", "T1 sequence (P13612 34-1032)": "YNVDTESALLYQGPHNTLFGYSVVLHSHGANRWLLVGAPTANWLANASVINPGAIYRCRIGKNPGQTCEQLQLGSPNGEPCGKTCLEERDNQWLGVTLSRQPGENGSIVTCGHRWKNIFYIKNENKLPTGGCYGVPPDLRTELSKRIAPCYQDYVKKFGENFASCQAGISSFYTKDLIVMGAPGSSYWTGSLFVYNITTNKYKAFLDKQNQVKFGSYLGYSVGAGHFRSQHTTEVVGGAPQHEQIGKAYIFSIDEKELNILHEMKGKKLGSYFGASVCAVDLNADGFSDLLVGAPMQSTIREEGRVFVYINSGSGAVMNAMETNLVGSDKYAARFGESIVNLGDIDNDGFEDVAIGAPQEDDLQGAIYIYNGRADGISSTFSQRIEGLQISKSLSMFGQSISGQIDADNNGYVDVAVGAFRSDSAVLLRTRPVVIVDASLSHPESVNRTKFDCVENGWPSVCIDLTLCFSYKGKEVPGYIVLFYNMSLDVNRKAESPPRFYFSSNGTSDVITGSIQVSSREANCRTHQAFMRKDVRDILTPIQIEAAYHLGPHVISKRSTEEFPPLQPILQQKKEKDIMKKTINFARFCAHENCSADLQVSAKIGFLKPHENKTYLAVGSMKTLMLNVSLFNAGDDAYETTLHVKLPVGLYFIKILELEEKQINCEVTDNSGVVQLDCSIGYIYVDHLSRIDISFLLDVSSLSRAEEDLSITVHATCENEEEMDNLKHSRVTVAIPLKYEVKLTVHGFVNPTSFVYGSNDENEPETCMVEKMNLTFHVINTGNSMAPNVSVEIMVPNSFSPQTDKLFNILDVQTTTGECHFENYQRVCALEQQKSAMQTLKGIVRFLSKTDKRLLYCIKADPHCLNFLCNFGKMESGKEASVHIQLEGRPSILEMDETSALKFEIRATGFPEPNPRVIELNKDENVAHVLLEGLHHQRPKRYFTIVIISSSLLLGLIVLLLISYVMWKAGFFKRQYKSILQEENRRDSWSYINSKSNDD", "T1 sequence (P26010 20-798)": "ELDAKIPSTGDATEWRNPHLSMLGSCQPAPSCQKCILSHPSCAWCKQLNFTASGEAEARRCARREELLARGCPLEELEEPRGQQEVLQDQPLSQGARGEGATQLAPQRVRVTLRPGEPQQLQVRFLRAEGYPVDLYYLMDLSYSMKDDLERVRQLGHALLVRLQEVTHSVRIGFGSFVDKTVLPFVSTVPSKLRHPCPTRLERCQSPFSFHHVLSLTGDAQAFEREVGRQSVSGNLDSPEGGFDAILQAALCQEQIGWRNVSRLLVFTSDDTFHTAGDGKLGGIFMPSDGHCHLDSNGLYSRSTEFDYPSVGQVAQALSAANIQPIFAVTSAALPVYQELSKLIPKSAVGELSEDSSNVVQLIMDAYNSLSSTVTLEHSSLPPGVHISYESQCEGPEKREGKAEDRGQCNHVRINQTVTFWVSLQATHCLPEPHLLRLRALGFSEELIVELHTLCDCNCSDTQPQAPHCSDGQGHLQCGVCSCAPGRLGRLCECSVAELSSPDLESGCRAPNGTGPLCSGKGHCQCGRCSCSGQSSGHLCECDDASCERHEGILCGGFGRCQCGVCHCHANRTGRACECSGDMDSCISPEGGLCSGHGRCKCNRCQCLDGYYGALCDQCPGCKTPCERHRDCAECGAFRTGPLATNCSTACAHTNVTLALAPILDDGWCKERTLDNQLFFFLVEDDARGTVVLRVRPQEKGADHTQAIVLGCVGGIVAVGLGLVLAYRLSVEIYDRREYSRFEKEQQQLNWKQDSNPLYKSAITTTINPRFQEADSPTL", "assay": "Inhibition of α4/β7 binding to MadCAM-1"}, "α4/β1 integrin": {"target": "α4/β1 integrin (Homo sapiens, UniProt P05556+P13612)", "sequence (P05556 21-798, one chain of several)": "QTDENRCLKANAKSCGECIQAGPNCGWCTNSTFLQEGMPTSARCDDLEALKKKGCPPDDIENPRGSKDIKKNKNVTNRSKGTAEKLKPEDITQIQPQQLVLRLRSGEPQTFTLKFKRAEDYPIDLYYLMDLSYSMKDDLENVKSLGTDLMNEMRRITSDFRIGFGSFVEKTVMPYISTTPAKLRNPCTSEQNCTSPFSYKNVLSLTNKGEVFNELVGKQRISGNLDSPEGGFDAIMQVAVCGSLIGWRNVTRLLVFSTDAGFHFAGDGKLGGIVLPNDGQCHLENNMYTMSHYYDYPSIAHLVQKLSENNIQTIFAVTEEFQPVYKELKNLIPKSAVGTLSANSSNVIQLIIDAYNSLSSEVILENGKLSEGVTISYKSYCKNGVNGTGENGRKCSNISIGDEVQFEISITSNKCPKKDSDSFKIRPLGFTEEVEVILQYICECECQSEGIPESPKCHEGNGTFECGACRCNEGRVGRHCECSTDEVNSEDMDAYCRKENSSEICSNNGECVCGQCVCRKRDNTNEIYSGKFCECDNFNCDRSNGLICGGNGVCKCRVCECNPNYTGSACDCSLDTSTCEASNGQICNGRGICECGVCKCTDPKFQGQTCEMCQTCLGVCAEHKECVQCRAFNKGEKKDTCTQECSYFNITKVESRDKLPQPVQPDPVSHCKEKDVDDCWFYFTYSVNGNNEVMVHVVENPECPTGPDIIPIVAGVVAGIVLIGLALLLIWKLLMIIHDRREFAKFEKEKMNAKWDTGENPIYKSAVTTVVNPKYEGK", "assay": "Inhibition of α4/β1 binding to VCAM-1"}, "[3]": {"details": "12-week monotherapy, versus placebo"}},
  "data": [
    {"smiles": "CCN(CC)CCOC(=O)[C@H](Cc1ccc(NC(=O)c2c(Cl)cccc2Cl)cc1)NC(=O)c1c(C)cccc1Cl", "note": "[R411, N-(2-Chloro-6-methylbenzoyl)-4-[(2,6-dichlorobenzoyl)amino]-L-phenylalanine-2-(diethylamino)ethyl ester]", "values": [
      {"measurement": "airway inflammation", "setting": "[1]", "value": "attenuates"},
      {"measurement": "decrease in daytime asthma symptom score", "setting": "[2]; [3]", "value": "Statistically significant improvements"},
      {"measurement": "decrease in nocturnal symptom score", "setting": "[2]; [3]", "value": "Statistically significant improvements"},
      {"measurement": "Asthma control Questionnaire (Total Score), change from baseline", "setting": "[2]; R411 200 mg once daily", "value": "−0.29 [2.08] Total Score"},
      {"measurement": "Morning asthma symptoms, change from baseline", "setting": "[2]; R411 200 mg once daily", "value": "−0.34*[1.55]"},
      {"measurement": "Rescue β2-agonist use (puffs/d), change from baseline", "setting": "[2]; R411 200 mg once daily, N = 117", "value": "−0.36/[3.04] puffs/d"},
      {"measurement": "Asthma control Questionnaire (Total Score), change from baseline", "setting": "[2]; R411 600 mg once daily", "value": "−0.23 [2.00] Total Score"},
      {"measurement": "Morning asthma symptoms, change from baseline", "setting": "[2]; R411 600 mg once daily", "value": "−0.33*[1.57]"},
      {"measurement": "Rescue β2-agonist use (puffs/d), change from baseline", "setting": "[2]; R411 600 mg once daily, N = 119", "value": "−0.41*/[3.11] puffs/d"},
      {"measurement": "Asthma Control Questionnaire Scores", "setting": "[2]; compared to placebo", "value": "Improvement"},
      {"measurement": "Asthma Quality-of-Life", "setting": "[2]; compared to placebo", "value": "Improvement"},
      {"measurement": "binding of α4/β7 to MadCAM-1", "setting": "α4/β7 integrin", "value": "inhibits"},
      {"measurement": "effectiveness against α4/β7 integrin", "setting": "α4/β7 integrin", "value": "effective"},
      {"measurement": "binding of α4/β1 to vascular cell adhesion molecule (VCAM-1)", "setting": "α4/β1 integrin", "value": "inhibits"},
      {"measurement": "effectiveness against α4/β1 integrin", "setting": "α4/β1 integrin", "value": "effective"}
    ]}
  ]
}
